Here are results for 81 molecules from the METLIN SMRT retention time set (Domingo-Almenara et al. 2019).

This data set is described as follows: gradient 5% acetonitrile 3 min, to 50% in 2 min, to 85% in 15 min, held 3 min, 100 µL/min. Conditions: column: Zorbax Extend-C18 2.1 x 50 mm; eluents: water / acetonitrile, 0.1% formic acid. The method, boiled down:
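Each retention time is based on an adduct peak selected computationally and verified by manual inspection. Measurements used HPLC–quadrupole time-of-flight mass spectrometry in positive and negative ionization mode on mixtures of ~100 pure standards. Chromatography ran on a Zorbax Extend-C18 column (2.1 × 50 mm, 1.8 μm) at 100 μL/min with water and acetonitrile, each containing 0.1% formic acid, and dead and dwell volumes of 40 μL and 900 μL.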
In the case of `CCOC(=O)c1c(S(=O)(=O)N2CCC(C(=O)Nc3ccc(F)cc3C)CC2)c(C)n(CC)c1C`, the RP-LC retention time is 885 s.
The molecule `O=C(CCc1cc(Cl)no1)NCCc1noc(C2CC2)n1` gave an RP-LC retention time of 693 s.
`CCN1C(=O)c2cccnc2Sc2cc(NC(=O)COc3ccc(Cl)cc3)ccc21`: the RP-LC retention time came out at 927 s.
Next, `Cc1cc(C)cc(N2CCC(NC(=O)Nc3ccccc3C)C2=O)c1` (stereo unspecified): 890 s.
The same measure for `O=C(c1ccco1)N1CCCC1c1nc(-c2ccc(F)cc2)no1` (stereo unspecified): 875 s; for `COc1ccc2c(c1)CCc1sc(NC(=O)c3ccc(Cl)cc3)nc1-2`: 1160 s.
For the molecule `COc1ccc(C(=O)N2CCN(S(=O)(=O)c3cc4c5c(c3)CCC(=O)N5CCC4)CC2)cc1`, the RP-LC retention time is 779 s.
The same measure for `CCC(C)(C)C(=O)NC1CCN(C2=NS(=O)(=O)C(c3ccc(C)c(C)c3)=C2C)CC1`: 950 s.
Next, `COCCCNC(=O)C1(C)Cn2nc(-c3ccccc3)cc2C(=O)N1c1ccc(F)cc1` (stereo unspecified): 806 s; `O=C(Cc1noc2ccccc12)NCC1CCS(=O)(=O)C1` (stereo unspecified): 606 s; `Cc1ccc(NC(=O)C2CCc3nc(N4CCOCC4)ncc3C2)c(F)c1` (stereo unspecified): 731 s.
As to `CC(C)(C)CN(C(=O)c1ccc(F)cc1)c1ccncc1`, the RP-LC retention time was 640 s.
`CC1(CNC(=O)Cc2c[nH]c3ccccc23)CCOCC1`: the RP-LC retention time was 668 s.
Turning to `COc1ccccc1C1=NS(=O)(=O)c2cc(S(=O)(=O)N3CCOCC3)ccc2N1`, the RP-LC retention time stood at 718 s.
Molecule `CCCNc1cc(N2CCCC(CCC(=O)NCC3CCCO3)C2)ncn1` (stereo unspecified) yielded an RP-LC retention time of 608 s.
As for `COc1cccc(CNS(=O)(=O)c2ccccc2-c2nc(-c3cccc(F)c3)no2)c1`, the RP-LC retention time stood at 1150 s.
The same measure for `CCOc1nc2ccccc2nc1N1CCCC(C(=O)N2CCOCC2)C1` (stereo unspecified): 983 s; for `O=C(c1ccccc1Cl)N1CCCC(c2nnc(-c3cccs3)o2)C1` (stereo unspecified): 775 s.
The same measure for `c1cc(Cc2nc(-c3ccc4c(c3)ncn4CCN3CCCCC3)no2)cs1`: 632 s.
Next, `Cc1noc(-c2cc(=O)n(CC(=O)NCc3ccc4c(c3)OCO4)c3ccccc23)n1`: 802 s; `CCOc1ccc(NC(=O)Cn2cccc2-c2nnc(C3CCC3)o2)cc1`: 912 s; `COc1ccc(NC(=O)C2CCN(c3cncnc3N3CCOCC3)CC2)cc1`: 605 s.
In turn, `COc1cc2c(cc1OC)CN(C(=O)CCc1sc(C)nc1-c1cccs1)CC2` returned an RP-LC retention time of 799 s.
The same measure for `Cn1nccc1-c1cccc(-c2noc(Cc3ccc(F)cc3)n2)c1`: 1040 s; for `N#CC1(C(=O)NCCOc2ccc(F)cc2)CC1`: 728 s; for `COc1ccc2c(c1)CC(C(=O)NCc1ccc(OC)cc1OC)CO2` (stereo unspecified): 894 s.
The same measure for `CN1CCN(C2=Cc3ccccc3Oc3ccc(Cl)cc32)CC1`: 818 s; for `COCC(=O)N(C1CCOCC1)C1CCN(S(=O)(=O)c2ccccc2C)CC1`: 737 s; for `Cc1ccc(CN(CC(=O)N2CCNCC2)C(=O)c2sccc2C)cc1`: 720 s.
In the case of `O=C(c1csc(S(=O)(=O)N2CCC(C(=O)N3CCc4ccccc43)CC2)c1)N1CCOCC1`, the RP-LC retention time is 779 s.
Next, `CCC(C)C(=O)N1CCCN(C2=NS(=O)(=O)C(c3ccc(F)cc3)=C2C)CC1` (stereo unspecified): 795 s; `CC(C)c1noc(-c2cc(=O)n(CC(=O)Nc3ccc(N(C)C)cc3)c3ccccc23)n1`: 737 s; `Cc1ccc(C)c(N2CCN(C(=O)c3cc(C)n4nccc4n3)CC2)c1`: 986 s.
Next, `CC(C)CCNC(=O)C1(C)CN(S(=O)(=O)c2ccccc2)CC(=O)N1c1ccc(F)cc1F` (stereo unspecified): 972 s.
With `CCCn1nnc(NCc2ccc(-c3cc(Cl)cc(Cl)c3)o2)n1`, the RP-LC retention time stood at 1210 s.
The same measure for `Fc1ccc(Cc2nc(-c3ccnc(N4CCCC4)c3)no2)cc1`: 708 s; for `COc1ncccc1CNC(=O)NCc1ccc(F)cc1`: 668 s; for `COC(=O)C1=CN(c2cccc(C#N)c2)c2ccc(F)cc2S1(=O)=O`: 787 s.
As to `CC(C)(C)c1cc(C(C)(C)C)c2c(c1)C(O)(C(F)(F)F)C(=O)O2` (stereo unspecified), the RP-LC retention time turned out to be 1250 s.
For `CC(C)Oc1ccccc1CN1C[C@@H]2C(=O)N(CCCN3CCCC3=O)C(=O)[C@@H]2C1`, the RP-LC retention time came to 630 s.
Consider `CCn1nc(CNC(=O)c2cncc(Br)c2)c2ccccc21`, for which the RP-LC retention time was 820 s.
`CCCn1c(-c2cccc(C(=O)N3CCC4(CC3)OCCO4)c2)nc2cccnc21` yielded an RP-LC retention time of 684 s.
On to `Cc1noc([C@@H]2CN(S(=O)(=O)c3ccc(Cl)s3)C[C@H]2C(N)=O)n1`, for which the RP-LC retention time stood at 732 s.
`O=C(CCCc1ccccc1)N1CCCC1c1nc(-c2ccccc2)no1` (stereo unspecified): the RP-LC retention time came out at 694 s.
Next, `CCc1nc2c(NC(=O)NCc3ccccc3)cccn2n1`: 778 s.
Next, `COc1ccc(NS(=O)(=O)c2cc3n(c2)CCCNC3=O)cc1Cl`: 677 s; `COC(=O)c1nnn(-c2cc(C)cc(C)c2)c1C(=O)OC`: 949 s.
Next, `O=c1ccn(-c2cccc(F)c2)nc1-c1nc(-c2ccc(F)c(Cl)c2)no1`: 984 s.
With `CCC1(O)CCOC2(CCN(Cc3cccc(OC)n3)CC2)C1` (stereo unspecified), the RP-LC retention time was 602 s.
The same measure for `CC1CN2C=NC(N3CCN(C(=O)Nc4cc(F)cc(F)c4)CC3)=CC2=N1` (stereo unspecified): 664 s; for `Cc1ccc(Cl)cc1NC(=O)Nc1cccc(-c2ccc(N3CCOCC3)nn2)c1`: 753 s.
Turning to `COc1ccc(CC(=O)N(C)C2CCN(c3nccnc3OC)C2)cc1` (stereo unspecified), the RP-LC retention time is 684 s.
Molecule `CC(NC(=O)C1=CCN(Cc2cccc(F)c2)CC1)c1ccccc1` (stereo unspecified) gave an RP-LC retention time of 662 s.
`CC(C)NC(=O)CN1C(=O)CC(c2ccc(Br)s2)=Nc2ccccc21` gave an RP-LC retention time of 929 s.
The same measure for `CCC(C)CN(CC(=O)N1CCc2sccc2C1COc1ccc(F)cc1)C(=O)COC` (stereo unspecified): 962 s; for `CS(=O)(=O)c1ccc(-c2ccc(NC(=O)c3cccs3)cc2)nn1`: 698 s.
In the case of `COc1cc(NC(=O)N2CC(C)Sc3ccccc32)cc(OC)c1OC` (stereo unspecified), the RP-LC retention time turned out to be 961 s.
The same measure for `COc1ccc(-c2[nH]ncc2CN2CC(F)(F)C[C@H]2CN2CCOCC2)cc1OC`: 594 s; for `CCOc1ccc(N2C=C(C(=O)N3CCCC3)S(=O)(=O)c3ccccc32)cc1`: 828 s.
Next, `Cc1ccccc1-c1nnc(CSc2ccc(N)cc2)o1`: 818 s; `CCOc1ccccc1NC(=O)Cn1cnc2c(sc3nc(-c4ccccc4)ccc32)c1=O`: 1110 s; `Cc1cc(C)c(CN2CCC3(CC2)CC3c2noc(C)n2)c(C)c1` (stereo unspecified): 655 s.
Next, `COc1cccc(CNC(=O)c2nnc(-c3ccc(S(=O)(=O)N4CCCC4)cc3)o2)c1`: 874 s; `O=C(COc1ccc(F)cc1)N1CC(Oc2cccc(-c3nc(-c4ccccc4)no3)c2)C1`: 1190 s.
For `O=C(NC1CC1)[C@@H]1C[C@H](Oc2ccccc2)CN1C(=O)CCc1c[nH]c2ccccc12`, the RP-LC retention time stood at 792 s.
As to `CCc1cccc(NC(=O)N2CCc3nc[nH]c3C2)c1`, the RP-LC retention time turned out to be 606 s.
In turn, `CCc1ccc(NC(=O)Cn2nc(N3CCOCC3)c3ccccc3c2=O)cc1` returned an RP-LC retention time of 874 s.
Turning to `Cc1ccc(C)c(-c2csc(Nc3ccc(Cl)cc3)n2)c1`, the RP-LC retention time worked out at 1340 s.
Next, `CCc1nc2cc(-c3noc(-c4nccc5ccccc45)n3)ccc2o1`: 1130 s.
`CCC(=O)N1CCc2cc(C(=O)NC)ccc21`: the RP-LC retention time was determined as 626 s.
Next, `Cc1c2ccncc2c(C)c2c1sc1ccccc12`: 714 s; `CC1(C(=O)NC2CCCCCCC2)CN(S(C)(=O)=O)CC(=O)N1c1ccc(F)cc1` (stereo unspecified): 884 s; `Cc1ccc2ncn(C3CCN(S(=O)(=O)c4cccc(F)c4)CC3)c(=O)c2c1`: 909 s.
Next, `CC(=O)N1CCc2cc(N3CC(C(=O)Nc4cc(C)ccc4C)CC3=O)ccc21` (stereo unspecified): 717 s; `Cc1noc(-c2ccnc(-n3cnc(C(=O)N4CCOCC4)c3)c2)n1`: 638 s; `O=C(NCCCN1CCOCC1)c1csc(-c2ccc(N3CCCC3)nc2)n1`: 553 s.
The same measure for `CCc1noc(-c2ccnc(-n3cnc(C(=O)NCc4ccccc4)c3)c2)n1`: 866 s; for `COCCn1cc2c3c(cccc31)CN(C(=O)Nc1cc(OC)cc(OC)c1)CC2`: 926 s; for `COc1ccccc1CC(=O)Nc1ccc(-c2nc(Cn3nc(C)cc3C)c(C)o2)cc1`: 924 s.
In the case of `COc1ccc(-c2nc3cccnc3n2C2CCN(C(=O)NCC(C)C)C2)cc1` (stereo unspecified), the RP-LC retention time was 680 s.
The same measure for `O=C(NCC1CCOCC1)Nc1cccc(Br)c1`: 749 s.
